Measurements as given in patent US5770201A, “HA-2 antigenic peptide” (Rijsuniversiteit Te Leiden, priority 1994, dated 1998).
Where no end group is shown, it is not given here.

System: T2 cell line for lysis by clone 5H17
Experiment: 51Cr release assay: peptide sensitization of T2 for lysis by HA-2 specific CTL clone 5H17
Type: cell-based, human
Conditions: T2 cells

## YXGEVXVSV (X: residue not identified in the source) [synthetic peptide mixture, X stands for L or I]
  HA-2 specific sensitizing CTL activity (lysis of T2): resulted in lysis of T2
